Read-outs that look alike come from different tables or passages of the source.
How the values were obtained:
[1] = target: T1, Native human Factor XIa protease (Homo sapiens, UniProt P03951); test: Inhibition of activity of Factor XIa protease (chromogenic substrate S-2366); assay type: biochemical; settings: S-2366 1 mM, 37° C. 10 minutes, absorption at 405 nm
T1 construct: The Native human Factor XIa protease was purchased from Abcam; purchased Abcam ab62411
Method in brief: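 Native human Factor XIa (final […]) in 100 mM Tris-HCl, 200 mM NaCl, 0.02% Tween 20, pH 7.4, preincubated with compound 5 min on ice; 1 mM S-2366 added, 10 min at 37° C. Absorbance at 405 nm versus 0.1% DMSO control; IC50 by nonlinear regression, compound 10,000 nM to […] final.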

human plasma = test: In-vitro anticoagulation on human plasma (APTT kit, coagulation time); settings: concentration of the compound when the coagulation time (APTT) was prolonged twice
[2] = Pharmacokinetics in SD rat; assay type: in vivo; settings: male, plasma; for AUC(0-t): read-out: Curve area AUC0-t; for half-life: read-out: Half-life period T1/2(h) (converted); for bioavailability: intragastric 10 mg/kg vs injection 1 mg/kg, read-out: Bioavailability F(%); for Cmax: read-out: Blood concentration Cmax
Description: Taking a SD rat as a test animal, the SD rat was administrated with the compound of the present invention by intravenous injection and/or intragastric administration, and drug concentrations in plasma at different times were determined by a IC/MS/MS method to study pharmacokinetic characteristics of the compound of the present invention in the SD rat.
SD rats, male, 195 g to 235 g, 6 weeks old to 8 weeks old, purchased from Shanghai JieSiJie Laboratory Animal Co., Ltd.
Preparation of drug administrated by intravenous injection: a proper amount of compound to be tested was added to a proper amount of DMAC; (30% Soltol HS 15): Saline=10%: 10%: 80% (v/v/v), and shaken in a vortex manner, so as to prepare a final solution with a concentration of 0.5 mg/mL.
Preparation of drug administrated by intragastric administration: a proper amount of compound to be tested was added to a proper amount of DMAC: (30% Soltol HS 15): Saline=10%: 10%: 80% (v/v/v), and shaken in a vortex manner, so as to prepare a final solution with a concentration of 1 mg/mL.
SD rats were divided into an intravenous injection group of the compound to be tested (3 rats/group) and an intragastric administration group (3 rats/group) of the compound to be tested.
Intravenous injection group: the drug was administrated by dorsalis pedis vein injection (according to a dosage of 1 mg/kg and a volume of 2 mL/kg) without fasting.
Intragastric administration group: the drug was administrated by intragastric administration (according to a dosage of 10 mg/kg and a volume of 10 mL/kg) after fasting overnight, and food was taken 4 hours after administration.
Intravenous injection group: about 150 μL of blood was collected into an EDTA-K2 anticoagulant tube through a jugular vein 0.083 hour, 0.25 hour, 0.5 hour, 1 hour, 2 hours, 4 hours, 8 hours and 24 hours after administration.
Intragastric administration group; about 150 μL of blood was collected into an EDTA-K2 anticoagulant tube through a jugular vein 0.25 how, 0.5 hour, 1 hour, 2 hours, 4 hours, 8 hours and 24 hours after administration.
The blood sample was stored in wet ice first, and plasma was centrifugally separated within 15 minutes after sampling (centrifugation conditions: 2,000 g, 4° C., 5 minutes). The collected upper plasma was stored at −70° C. before analysis.
Contents of the compound to be tested in rat plasma after intravenous injection and intragastric administration were determined by LC-MS/MS.

[3] = iv, injection administration 1 mg/kg
[4] = po, intragastric administration 10 mg/kg

T1 sequence (P03951 388-625 limits assumed): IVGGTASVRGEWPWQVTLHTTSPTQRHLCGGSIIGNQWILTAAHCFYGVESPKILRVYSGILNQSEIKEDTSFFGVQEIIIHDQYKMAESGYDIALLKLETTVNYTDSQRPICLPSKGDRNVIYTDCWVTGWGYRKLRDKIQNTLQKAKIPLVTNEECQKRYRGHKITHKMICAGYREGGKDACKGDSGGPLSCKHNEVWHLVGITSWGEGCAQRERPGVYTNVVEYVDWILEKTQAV
T1 sequence (P03951 19-387 partner limits assumed): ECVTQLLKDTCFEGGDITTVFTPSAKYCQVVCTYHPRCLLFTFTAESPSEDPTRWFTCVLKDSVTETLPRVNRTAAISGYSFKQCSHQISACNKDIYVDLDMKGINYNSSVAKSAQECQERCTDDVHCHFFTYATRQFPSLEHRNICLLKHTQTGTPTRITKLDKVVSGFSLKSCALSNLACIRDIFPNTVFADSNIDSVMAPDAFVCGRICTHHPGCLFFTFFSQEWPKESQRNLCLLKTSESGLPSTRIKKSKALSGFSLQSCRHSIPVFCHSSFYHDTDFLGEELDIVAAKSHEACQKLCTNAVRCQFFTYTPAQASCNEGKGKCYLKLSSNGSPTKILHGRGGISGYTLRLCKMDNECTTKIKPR

Row | IC50 [1] [nM] | AUC(0-t) [2, 3] [ng·h/mL] | half-life [2, 3] [h] | bioavailability ([2]; po) [%] | Cmax [2, 4] [ng/mL] | AUC(0-t) [2, 4] [ng·h/mL] | half-life [2, 4] [h] | Compound | CT2 (human plasma) [µM]
1 | 14.8 | 431 ± 117 | 0.818 ± 0.37 | 80.4 ± 28.5 | 1390 ± 521 | 3460 ± 1230 | 0.895 ± 0.0751 | Cn1cc2cc(NC(=O)C(Cc3ccccc3)N3CC(=O)N(c4cc(Cl)ccc4-n4cc(Cl)nn4)CC3=O)ccc2n1 (stereo not drawn) [Example 25, 2-(4(5-chloro-2-(4-chloro-1H-1,2,3-triazol-1-yl)phenyl)-2,5-dioxopiperazin-1-yl)-N-(2-methyl-2H-indazol-5-yl)-3-phenylpropanamide] | 6.6
2 | 45.2 |  |  |  | 2860 ± 268 | 12200 ± 3190 | 2.13 ± 0.18 | Cn1cc2cc(NC(=O)C(Cc3ccc(F)cc3)N3CC(=O)N(c4cc(Cl)ccc4-n4cc(Cl)nn4)CC3=O)ccc2n1 (stereo not drawn) [Example 47, 2-(4-(5-Chloro-2-(4-chloro-1H-1,2,3-triazol-1-yl)phenyl)-2,5-dioxopiperazin-1-yl)-3-(4-fluorophenyl)-N-(2-methyl-2H-indazol-5-yl)propanamide] | 9.3
3 | 19.1 |  |  |  | 1170 ± 576 | 4710 ± 2120 | 2.04 ± 1.08 | O=C(Nc1ccc2nn(C(F)F)cc2c1)C(Cc1ccccc1)N1CC(=O)N(c2cc(Cl)ccc2-n2cc(Cl)nn2)CC1=O (stereo not drawn) [Example 45, 2-(4-(5-Chloro-2-(4-chloro-1H-1,2,3-triazol-1-yl)phenyl)-2,5-dioxopiperazin-1-yl)-N-(2-(difluoromethyl)-2H-indazol-5-yl)-3-phenylpropanamide] | 11.3

Further lines, the compound ahead of its results:

Row | Compound | IC50 [1] [nM] | AUC(0-t) [2, 3] [ng·h/mL] | half-life [2, 3] [h] | bioavailability ([2]; po) [%] | Cmax [2, 4] [ng/mL] | AUC(0-t) [2, 4] [ng·h/mL] | half-life [2, 4] [h] | CT2 (human plasma) [µM]
4 | Cn1cc2cc(NC(=O)C(Cc3ccc(F)cc3)N3CC(=O)N(c4cc(Cl)ccc4-n4cc(Cl)nn4)CC3=O)ccc2n1 (stereo in doubt) [Example 99, (R)-2-(4-(5-chloro-2-(4-chloro-1H-1,2,3-triazol-1-yl)phenyl)-2,5-dioxopiperazin-1-yl)-3-(4-fluorophenyl)-N-(2-methyl-2H-indazol-5-yl)propanamide] | 24.4 | 326 ± 61.2 | 0.595 ± 0.222 | 149 ± 48.1 | 1100 ± 498 | 4850 ± 1570 | 0.994 | 6.9
5 | Cn1cc2cc(NC(=O)C(CC3CCCCO3)N3CC(=O)N(c4cc(Cl)ccc4-n4cc(Cl)nn4)CC3=O)ccc2n1 (stereo not drawn) [Example 117, 2-(4-(5-Chloro-2-(4-chloro-1H-1,2,3-triazol-1-yl)phenyl)-2,5-dioxopiperazin-1-yl)-N-(2-methyl-2H-indazol-5-yl)-3-(tetrahydro-2H-pyran-2-yl)propanamide] |  |  |  |  | 2220 ± 552 | 3940 ± 984 | 0.735 ± 0.0242 | 6.3
6 | COCCC(C(=O)Nc1ccc2nn(C)cc2c1)N1CC(=O)N(c2cc(Cl)ccc2-n2cc(Cl)nn2)CC1=O (stereo not drawn) [Example 38, 2-(4-(5-Chloro-2-(4-chloro-1H-1,2,3-triazol-1-yl)phenyl)-2,5-dioxopiperazin-1-yl)-4-methoxy-N-(2-methyl-2H-indazol-5-yl)butanamide] | 61.4 |  |  |  | 1360 ± 564 | 3080 ± 281 | 2.63 ± 0.172 | 19.0
7 | NC(=O)c1ccc(NC(=O)C(Cc2ccccc2)N2CC(=O)N(c3cc(Cl)ccc3-n3cc(Cl)nn3)CC2=O)cc1F (stereo not drawn) [Example 36, 4-(2-(4-(5-chloro-2-(4-chloro-1H-1,2,3-triazol-1-yl)phenyl)-2,5-dioxopiperazin-1-yl)-3-phenylpropanamido)-2-fluorobenzamide] | 27.1 |  |  |  | 798 ± 868 | 2190 ± 2750 | 1.15 ± 0.0495 | 15.9
8 | Cn1ccc(CC(C(=O)Nc2ccc3nn(C)cc3c2)N2CC(=O)N(c3cc(Cl)ccc3-n3cc(Cl)nn3)CC2=O)n1 (stereo not drawn) [Example 111, 2-(4-(5-chloro-2-(4-chloro-1H-1,2,3-triazol-1-yl)phenyl)-2,5-dioxopiperazin-1-yl)-3-(1-methyl-1H-pyrazol-3-yl)-N-(2-methyl-2H-indazol-5-yl)propanamide] | 45.3 |  |  |  | 1420 ± 703 | 2560 ± 409 | 2.37 ± 1.21 | 19.6
